In DBAASP:
In brackets after ≈: the same amount, converted by molar mass.

Legend:
Assay in all cases: ≥ marks a high value that may be exact or a test limit, other limits are often not marked, values filed in µg/mL are converted to µM
[1] = system: Bacillus subtilis ATCC 23857
[2] = system: Candida albicans ATCC 10231
[3] = system: Staphylococcus aureus NCTC 10788
[4] = system: Candida albicans ATCC 2002
[5] = system: Escherichia coli ATCC 25922
[6] = system: Pseudomonas aeruginosa CMCCB 10104
[7] = system: Staphylococcus aureus ATCC 25923
[8] = system: Escherichia coli NCTC 10418
[9] = system: Staphylococcus aureus NCTC 8325
[10] = system: Candida albicans ATCC 90028
[11] = system: Klebsiella pneumoniae ATCC 700603
[12] = system: Pseudomonas aeruginosa ATCC 9027

MIC [1] [µM] | MIC [5] [µM] | MIC [7] [µM] | SMILES | other results
≥ 362 |  |  | C[C@H](N)C(=O)N[C@@H](C)C(=O)N[C@@H](CCCN=C(N)N)C(=O)N[C@@H](CCCN=C(N)N)C(=O)N[C@@H](C)C(=O)N[C@@H](C)C(=O)N[C@@H](CCCN=C(N)N)C(=O)N[C@@H](CCCN=C(N)N)C(=O)N[C@@H](C)C(=O)N[C@@H](C)C(=O)N[C@@H](CCCN=C(N)N)C(=O)N[C@@H](CCCN=C(N)N)C(N)=O [AARRAARRAARR] | MIC [2]: > 362 µM
 |  |  | CC(C)C[C@H](NC(=O)[C@H](CC(C)C)NC(=O)CNC(=O)CNC(=O)[C@H](CC(C)C)NC(=O)[C@H](CC(C)C)NC(=O)CNC(=O)[C@H](CC(C)C)NC(=O)[C@@H](N)Cc1ccccc1)C(N)=O [FLGLLGGLL] | MIC [3]: ≥ 284 µM
 | 1.3 (≈ 3.4 µg/mL) | 2.6 (≈ 6.79 µg/mL) | CC[C@H](C)[C@@H]1NC(=O)[C@H](C)NC(=O)[C@@H](NC(=O)[C@H](Cc2ccccc2)NC(=O)[C@@H](NC(=O)[C@@H](NC(=O)[C@@H]2CCCN2C(=O)[C@H](CC(C)C)NC(=O)[C@@H](NC(=O)[C@H](Cc2cnc[nH]2)NC(=O)[C@@H](NC(=O)[C@H](C)NC(=O)[C@@H](NC(=O)[C@H](CC(C)C)NC(=O)[C@H](CC(C)C)NC(=O)[C@@H](NC(=O)[C@H](C)NC(=O)[C@@H]2CCCN2C(=O)[C@H](CC(C)C)NC(=O)[C@@H](N)Cc2ccccc2)C(C)C)C(C)C)[C@@H](C)O)C(C)C)[C@@H](C)O)C(C)C)CSSC[C@@H](C(=O)O)NC(=O)[C@H](CCCCN)NC(=O)[C@H](CCCN=C(N)N)NC(=O)[C@H]([C@@H](C)O)NC1=O [FLPAVLLVATHVLPTVFCAITRKC] | MIC [4]: 2.6 µM (≈ 6.79 µg/mL); MIC [6]: 10.4 µM (≈ 27.2 µg/mL)
 |  |  | CC[C@H](C)[C@H](NC(=O)[C@@H](NC(=O)[C@@H]1CCCN1C(=O)[C@H](CC(C)C)NC(=O)[C@@H](N)Cc1ccccc1)C(C)C)C(=O)N[C@@H](C)C(=O)NCC(=O)N[C@H](C(=O)N[C@@H](CC(C)C)C(=O)N[C@@H](CO)C(=O)N[C@@H](CCCCN)C(=O)N[C@@H](CC(C)C)C(=O)N[C@@H](Cc1ccccc1)C(N)=O)C(C)C [FLPVIAGVLSKLF] | MIC [8]: ≥ 40 µM; MIC [3]: 10 µM (≈ 14 µg/mL)
8 (≈ 10.8 µg/mL) | > 128 |  | CC[C@H](C)[C@H](NC(=O)CN)C(=O)N[C@H](C(=O)N[C@@H](CCCN=C(N)N)C(=O)NCC(=O)N[C@H](C(=O)N[C@H](C(=O)N[C@@H](CCCN=C(N)N)C(=O)N[C@@H](CCCN=C(N)N)C(=O)N[C@H](C(=O)N[C@@H](CCCCN)C(=O)NCC(N)=O)[C@@H](C)CC)[C@@H](C)CC)[C@@H](C)CC)[C@@H](C)CC [GIIRGIIRRIKG] | 
16 (≈ 23.2 µg/mL) | 64 (≈ 92.8 µg/mL) |  | CC[C@H](C)[C@H](NC(=O)CN)C(=O)N[C@@H](CCCN=C(N)N)C(=O)N[C@@H](CCCN=C(N)N)C(=O)NCC(=O)N[C@H](C(=O)N[C@H](C(=O)N[C@@H](CCCN=C(N)N)C(=O)N[C@H](C(=O)N[C@H](C(=O)N[C@@H](CCCCN)C(=O)N[C@@H](CCCN=C(N)N)C(N)=O)[C@@H](C)CC)[C@@H](C)CC)[C@@H](C)CC)[C@@H](C)CC [GIRRGIIRIIKR] | 
≥ 128 | > 128 |  | CC[C@H](C)[C@H](NC(=O)CN)C(=O)N[C@@H](CCCN=C(N)N)C(=O)N[C@@H](CCCN=C(N)N)C(=O)NCC(=O)N[C@H](C(=O)N[C@@H](CCCN=C(N)N)C(=O)N[C@@H](CCCN=C(N)N)C(=O)N[C@H](C(=O)N[C@@H](CCCCN)C(=O)N[C@@H](CCCCN)C(=O)N[C@@H](CCCN=C(N)N)C(N)=O)[C@@H](C)CC)[C@@H](C)CC [GIRRGIRRIKKR] | 
 | 12.5 (≈ 28.2 µg/mL) |  | CC[C@H](C)[C@H](NC(=O)CN)C(=O)N[C@@H](Cc1c[nH]c2ccccc12)C(=O)N[C@@H](CC(=O)O)C(=O)N[C@H](C(=O)N[C@@H](CC(C)C)C(=O)N[C@@H](CCCCN)C(=O)N[C@@H](CC(N)=O)C(=O)N[C@H](C(=O)NCC(=O)N[C@@H](CCCCN)C(=O)N[C@@H](C)C(=O)N[C@H](C(=O)N[C@@H](CC(C)C)C(=O)NCC(=O)N[C@@H](CCCCN)C(=O)N[C@H](C(=O)N[C@@H](CC(C)C)C(=O)N[C@@H](CCC(=O)O)C(=O)N[C@@H](CC(N)=O)C(=O)N[C@H](C(N)=O)C(C)C)C(C)C)C(C)C)C(C)C)[C@@H](C)O [GIWDTLKNVGKAVLGKVLENV] | MIC [9]: ≥ 50 µM
 | 6 (≈ 19.7 µg/mL) |  | CC[C@H](C)[C@H](NC(=O)[C@H](CC(C)C)NC(=O)[C@H](CC(C)C)NC(=O)[C@H](CC(N)=O)NC(=O)[C@H](CCCCN)NC(=O)[C@@H](NC(=O)[C@@H](NC(=O)CNC(=O)[C@H](CC(C)C)NC(=O)[C@@H](NC(=O)CN)C(C)C)[C@@H](C)O)C(C)C)C(=O)NCC(=O)N[C@@H](C)C(=O)NCC(=O)N[C@@H](CCCCN)C(=O)N[C@@H](CO)C(=O)N[C@@H](C)C(=O)N[C@@H](C)C(=O)N[C@@H](CCC(N)=O)C(=O)N[C@@H](CO)C(=O)N[C@H](C(=O)N[C@@H](CC(C)C)C(=O)N[C@@H](CCCCN)C(=O)N[C@H](C(=O)N[C@@H](CC(C)C)C(=O)N[C@@H](CO)C(=O)N[C@H]1CSSC[C@@H](C(=O)O)NC(=O)[C@H](CC(=O)O)NC(=O)[C@H](CC(N)=O)NC(=O)[C@H](CO)NC(=O)[C@H](CC(C)C)NC(=O)[C@H](CCCCN)NC1=O)[C@@H](C)O)C(C)C [GVLGTVKNLLIGAGKSAAQSVLKTLSCKLSNDC] | MIC [10]: ≥ 100 µM; MIC [9]: 25 µM (≈ 82.2 µg/mL)
 | > 100 |  | CC[C@H](C)[C@H](N)C(=O)N[C@@H](CC(C)C)C(=O)N1CCC[C@H]1C(=O)N[C@H](C(=O)N[C@@H](CC(C)C)C(=O)NCC(=O)N[C@@H](CC(N)=O)C(=O)N[C@@H](CC(C)C)C(=O)N[C@@H](CC(C)C)C(=O)N[C@@H](CC(N)=O)C(=O)NCC(=O)N[C@@H](CC(C)C)C(=O)N[C@@H](CC(C)C)C(N)=O)[C@@H](C)CC [ILPILGNLLNGLL] | MIC [10]: ≥ 100 µM; MIC [9]: ≥ 100 µM
4 (≈ 5.86 µg/mL) | 4 (≈ 5.86 µg/mL) | 4 (≈ 5.86 µg/mL) | CC[C@H](C)[C@H](NC(=O)[C@H](CCCCN)NC(=O)[C@H](CCCCN)NC(=O)[C@H](C)NC(=O)[C@@H](NC(=O)[C@H](C)NC(=O)[C@H](CC(C)C)NC(=O)[C@H](CC(C)C)NC(=O)[C@H](C)NC(=O)[C@H](CCCCN)NC(=O)[C@H](CC(C)C)NC(=O)[C@H](C)NC(=O)[C@@H](N)CC(C)C)C(C)C)C(=O)N[C@@H](CC(C)C)C(N)=O [LALKALLAVAKKIL] | MIC [11]: 8 µM (≈ 11.7 µg/mL); MIC [12]: 8 µM (≈ 11.7 µg/mL)
16 (≈ 23.2 µg/mL) | 8 (≈ 11.6 µg/mL) | 4 (≈ 5.8 µg/mL) | CC[C@H](C)[C@H](NC(=O)[C@H](CCCCN)NC(=O)[C@H](CCCCN)NC(=O)[C@H](C)NC(=O)[C@@H](NC(=O)[C@H](C)NC(=O)[C@H](CC(C)C)NC(=O)[C@H](CC(C)C)NC(=O)[C@H](C)NC(=O)[C@H](C)NC(=O)[C@H](CC(C)C)NC(=O)[C@H](CC(N)=O)NC(=O)[C@@H](N)CC(C)C)C(C)C)C(=O)N[C@@H](CC(C)C)C(N)=O [LNLAALLAVAKKIL] | MIC [11]: 32 µM (≈ 46.4 µg/mL); MIC [12]: 32 µM (≈ 46.4 µg/mL)
8 (≈ 11.7 µg/mL) | 8 (≈ 11.7 µg/mL) | 32 (≈ 46.9 µg/mL) | CC(C)C[C@H](NC(=O)[C@H](C)NC(=O)[C@H](CCCCN)NC(=O)[C@H](CCCCN)NC(=O)[C@H](C)NC(=O)[C@@H](NC(=O)[C@H](C)NC(=O)[C@H](CC(C)C)NC(=O)[C@H](CC(C)C)NC(=O)[C@H](C)NC(=O)[C@H](CCCCN)NC(=O)[C@H](CC(C)C)NC(=O)[C@H](CC(N)=O)NC(=O)[C@@H](N)CC(C)C)C(C)C)C(N)=O [LNLKALLAVAKKAL] | MIC [11]: 32 µM (≈ 46.9 µg/mL); MIC [12]: 32 µM (≈ 46.9 µg/mL)
8 (≈ 11.7 µg/mL) | 8 (≈ 11.7 µg/mL) | 32 (≈ 46.9 µg/mL) | CC[C@H](C)[C@H](NC(=O)[C@H](CCCCN)NC(=O)[C@H](CCCCN)NC(=O)[C@H](C)NC(=O)[C@@H](NC(=O)[C@H](C)NC(=O)[C@H](CC(C)C)NC(=O)[C@H](CC(C)C)NC(=O)[C@H](C)NC(=O)[C@H](CCCCN)NC(=O)[C@H](CC(C)C)NC(=O)[C@H](CC(N)=O)NC(=O)[C@@H](N)CC(C)C)C(C)C)C(=O)N[C@@H](C)C(N)=O [LNLKALLAVAKKIA] | MIC [11]: 16 µM (≈ 23.4 µg/mL); MIC [12]: 32 µM (≈ 46.9 µg/mL)
 | 1.5 (≈ 3.92 µg/mL) |  | CC[C@H](C)[C@@H]1NC(=O)[C@H](CCCCN)NC(=O)[C@@H](NC(=O)[C@H](C)NC(=O)[C@@H](NC(=O)[C@H](CC(C)C)NC(=O)CNC(=O)[C@H](CC(C)C)NC(=O)CNC(=O)[C@@H](NC(=O)[C@H](CCCCN)NC(=O)CNC(=O)[C@H](CC(C)C)NC(=O)[C@H](CC(N)=O)NC(=O)[C@H](CCCCN)NC(=O)[C@H](CC(C)C)NC(=O)[C@@H](NC(=O)[C@H](CO)NC(=O)[C@H](CC(C)C)NC(=O)[C@H](CCSC)NC(=O)[C@@H](N)CO)C(C)C)C(C)C)C(C)C)CSSC[C@@H](C(=O)O)NC(=O)[C@H](CCC(N)=O)NC(=O)[C@H](CCCCN)NC(=O)[C@H](CC(N)=O)NC1=O [SMLSVLKNLGKVGLGLVACKINKQC] | MIC [10]: ≥ 58 µM; MIC [9]: ≥ 55 µM
